{"source": "patent US20170065327A1", "about": "“METHODS AND MATERIALS FOR TREATING ELEVATED SYMPATHETIC NERVE ACTIVITY CONDITIONS” (Mayo Foundation for Medical Education and Research, priority 2014, published 2017)", "key": {"[1]": {"system": "young and older postmenopausal women", "assay": "Autonomic (ganglionic) blockade with trimethaphan camsylate in young and older postmenopausal women: muscle sympathetic nerve activity, arterial pressure, total peripheral resistance", "format": "in vivo, human", "details": "during trimethaphan", "from_the_text": "(§1) FIG. 1 is a graph plotting muscle sympathetic nerve activity (MSNA; bursts/min) as measured using a microneurography technique for 24 humans. The dose indicates the amount of trimethaphan in mg/min it took to abolish the sympathetic nerve bursts. The MSNA bursts per minute is the amount of sympathetic bursts that occurred at baseline, prior to drug infusion.\n(§2) FIG. 2 is a graph plotting the same dose of trimethaphan in mg/min compared to the difference in mean arterial pressure (MAP) between baseline and at the final trimethaphan dose.\nThe effect of ganglionic blockade on arterial blood pressure and how this relates to baseline muscle sympathetic nerve activity in 12 young (25±1 years) and 12 older postmenopausal (61±2 years) women were examined. The women were studied before and during autonomic blockade using trimethaphan camsylate. At baseline, muscle sympathetic nerve activity burst frequency and burst incidence were higher in the older women (33±3 versus 15±1 bursts/min; 57±5 versus 25±2 bursts/100 heartbeats, respectively; P<0.05). Muscle sympathetic nerve activity bursts were abolished by trimethaphan within minutes (e.g., between about 6 and about 35 minutes). […] Baseline muscle sympathetic nerve activity was associated with the decrease in mean arterial pressure during trimethaphan (r=−0.74; P<0.05). See, also, Barnes et al., Hypertension, 63:303-308 (2014)."}, "healthy humans": {"system": "healthy humans", "assay": "Brief escalating infusion of trimethaphan camsylate with non-invasive beat-to-beat arterial pressure measurement to distinguish high and low sympathetic activity individuals", "format": "in vivo, human", "details": "infusion 1-4 mg/minute for 5-10 minutes, 24 healthy humans", "from_the_text": "as §1, §2\nBoth normal human subjects and patients with diseases such as resistant hypertension can have very wide ranges of baseline sympathetic activity. The following was developed to distinguish those individuals with high levels of baseline sympathetic activity from individuals with lower levels of baseline sympathetic activity. Trimethaphan camsylate, a ganglionic blocking drug, was administered (e.g., by infusion) at 1-4 mg/minute for 5-10 minutes to 24 healthy humans, while non-invasive beat-to-beat measurements of arterial pressure were made. […] The relationship between the fall in blood pressure and baseline sympathetic activity in a group of about 20-30 healthy women ranging in age from their early 20's to their later 60's was determined (FIGS. 1 and 2). Similar data were obtained using healthy men. […]"}, "[2]": {"details": "older postmenopausal women (61±2 years, n=12), P<0.01 versus young"}}, "data": [{"smiles": "O=C1N(Cc2ccccc2)C2C[S+]3CCCC3C2N1Cc1ccccc1", "note": "(stereo not drawn) [trimethaphan, trimethaphan camsylate]", "values": [{"measurement": "Muscle sympathetic nerve activity bursts", "setting": "[1]; 12 young and 12 older postmenopausal women", "value": "abolished"}, {"measurement": "decrease in mean arterial pressure", "setting": "[1]; [2]", "value": "−29±2", "unit": "mm Hg"}, {"measurement": "decrease in total peripheral resistance", "setting": "[1]; [2]", "value": "−10±1", "unit": "mm Hg/L per minute"}, {"measurement": "decrease in mean arterial pressure", "setting": "[1]; young women (25±1 years, n=12)", "value": "−9±2", "unit": "mm Hg"}, {"measurement": "decrease in total peripheral resistance", "setting": "[1]; young women (25±1 years, n=12)", "value": "−5±1", "unit": "mm Hg/L per minute"}, {"measurement": "fall in blood pressure during brief escalating doses", "setting": "healthy humans", "value": "directly related to baseline sympathetic activity"}]}]}
